# Reference: patent publication US20230123334A1, “AMINO LIPID COMPOUND, PREPARATION METHOD THEREFOR, AND APPLICATION THEREOF” (SHENZHEN SHENXIN BIOTECHNOLOGY CO., LTD., priority 2020, published 2023)
# Tested on: HEK293 cells
# Assay: Preliminary screening as mRNA vectors, EGFP mRNA transfection of HEK293 cells
# Assay type: cell-based
# Settings: EGFP mRNA 50 ng per well, 96-well plates; percentage of GFP fluorescent cells relative to total number of cells (Hoechst)
# Summary of the method: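 Each well of HEK293 cells received 50 ng of EGFP mRNA. Efficiency was expressed as percent GFP-expressing cells over Hoechst-defined total cell number.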
row,Structure (SMILES),Absolute mRNA transfection efficiency in HEK293 cells
1,CCCCCCCCCCCCCNc1nc(NCCCN2CCN(C)CC2)nc(SCCCCCCC)n1 [Compound D9S7N13],60.4%
2,CCCCCCCCCCCCNc1nc(NCCN2CCCCC2)nc(SCCCCCCCCCCC)n1 [Compound D4S11N12],8.9%
3,CCCCCCCSc1nc(NCCCCCC)nc(NCCN2CCCC2)n1 [Compound D3S7N6],5.8%
4,CCCCCCCCCCCCCCCCNc1nc(NCCN2CCCC2)nc(SCCCCCCCCCCCC)n1 [Compound D3S12N16],1.9%
5,CCCCCCCCCCSc1nc(NCCN2CCCCC2)nc(SCCCCCCC)n1 [Compound D4S7S10],2.7%
6,CCCCCCCCCCCCNc1nc(NCCN(C)C)nc(SCCCCCCCCCC)n1 [Compound D1S10N12],2.4%
7,CCCCCCCCCNc1nc(NCCN2CCOCC2)nc(SCCCCCCC)n1 [Compound D2S7N9],8.7%
8,CCCCCCCCCCCCCCCCSc1nc(NCCCCCCCCCCCCC)nc(NCCN(C)C)n1 [Compound D1S16N13],0.9%
9,CCCCCCCCCCCCN(CCCCCCCCCCCC)c1nc(NCCN2CCN(C)CC2)nc(SCCCCCCCCCC)n1 [D5S10^2N12],0.1%
10,CCCCCCCCSc1nc(NCCN2CCOCC2)nc(SCCCCCCC)n1 [Compound D2S7S8],35.6%
11,CCCCCCCCCCCCCCCCCCSc1nc(NCCCCCCCCCCCCCCC)nc(NCCCN2CCOCC2)n1 [Compound D8S18N15],0.0%
12,CCCCCCCCCCSc1nc(NCCN(CC)CC)nc(SCCCCCCC)n1 [Compound D7S7S10],1.7%
13,CCCCCCCCCCCCCCCNc1nc(NCCN(CC)CC)nc(SCCCCCCCCCCCCCC)n1 [Compound D7S14N15],0.8%
14,CCCCCCCCCCCCN(CCCCCCCCCCCC)c1nc(NCC2CCN(C)CC2)nc(SCCCCCC)n1 [D10S6^2N12],0.1%
15,CCCCCCCCCCCCCCCCSc1nc(NCCCN2CCN(C)CC2)nc(SCCCCCCC)n1 [Compound D9S7S16],9.2%
16,CCCCCCCCNc1nc(NCCN2CCCC2)nc(SCCCCCCCC)n1 [Compound D3S8N8],3.0%
17,CCCCCCCCCCCSc1nc(NCCCCCCCCC)nc(NCCCN2CCOCC2)n1 [Compound D8S11N9],1.6%
18,CCCCCCCCCSc1nc(NCC2CCN(C)CC2)nc(SCCCCCC)n1 [Compound D10S6S9],14.7%
19,CCCCCCCCCSc1nc(NCCN2CCN(C)CC2)nc(SCCCCCCC)n1 [Compound D5S7S9],20.6%
20,CCCCCCCCCCCCCCCCSc1nc(NCCCCCCCCCCCC)nc(NCCCN2CCOCC2)n1 [Compound D8S16N12],0.9%
21,CCCCCCCCCCCCSc1nc(NCCCCCCCC)nc(NCCN2CCCC2)n1 [Compound D3S12N8],12.3%
22,CCCCCCCCCCCCCCCCNc1nc(NCC2CCN(C)CC2)nc(SCCCCCCCCC)n1 [Compound D10S9N16],30.2%
23,CCCCCCCCCSc1nc(NCCCCCCC)nc(NCC2CCN(C)CC2)n1 [Compound D10S9N7],0.9%

row,Structure (SMILES),Absolute mRNA transfection efficiency in HEK293 cells
1,CCCCCCCCCCCCCCCCCCNc1nc(NCCN2CCOCC2)nc(SCCCCCCCCCCCCCCC)n1 [Compound D2S15N18],0.3%
2,CCCCCCCCCCCCCCCCNc1nc(NCCN2CCN(C)CC2)nc(SCCCCCCCCC)n1 [Compound D5S9N16],16.1%
3,CCCCCCCCCCCCCCSc1nc(NCCCCCCCC)nc(NCCCN(C)C)n1 [Compound D6S14N8],80.6%
4,CCCCCCCCCSc1nc(NCCCN(C)C)nc(SCCCCCC)n1 [Compound D6S6S9],10.6%
5,CCCCCCCCCCCCCNc1nc(NCC2CCN(C)CC2)nc(SCCCCCCCCCCCC)n1 [Compound D10S12N13],1.8%
6,CCCCCCCCCCCCCCSc1nc(NCCCCCC)nc(NCCCN(C)C)n1 [Compound D6S14N6],59.9%
7,CCCCCCCCCCCCCCCCCCNc1nc(NCCN2CCCCC2)nc(SCCCCCCCCCCC)n1 [Compound D4S11N18],8.8%
8,CCCCCCCCCCCCCCCCNc1nc(NCCN(CC)CC)nc(SCCCCCCCCCCC)n1 [Compound D7S11N16],4.4%
9,CCCCCCCCCCCCCCCCSc1nc(NCCCCCCCCC)nc(NCCCN(C)C)n1 [Compound D6S16N9],76.1%
10,CCCCCCCCCCCCCCSc1nc(NCCCCCCC)nc(NCCN(C)C)n1 [Compound D1S14N7],25.7%
11,CCCCCCCCCCCSc1nc(NCCN2CCCC2)nc(SCCCCCCC)n1 [Compound D3S7S11],11.4%
12,CCCCCCCCCCCCCNc1nc(NCCCN2CCN(C)CC2)nc(SCCCCCCCC)n1 [Compound D9S8N13],46.5%
13,CCCCCCCSc1nc(NCCCCCC)nc(NCCN(C)C)n1 [Compound D1S7N6],5.1%
14,CCCCCCCCCCCCCCCSc1nc(NCCN2CCCCC2)nc(SCCCCCC)n1 [Compound D4S6S15],2.0%
15,CCCCCCCCCCCCCCCSc1nc(NCCCCCCCC)nc(NCCN(C)C)n1 [Compound D1S15N8],98.3%
16,CCCCCCCCCCCCCCCCSc1nc(NCCCCCCCCC)nc(NCCN2CCCC2)n1 [Compound D3S16N9],92.8%
17,CCCCCCCCSc1nc(NCCCCCCC)nc(NCCN2CCCCC2)n1 [Compound D4S8N7],1.8%
18,CCCCCCCCCCCNc1nc(NCC2CCN(C)CC2)nc(SCCCCCCCC)n1 [Compound D10S8N11],81.5%
19,CCCCCCCCSc1nc(NCCCCCC)nc(NCCCN(C)C)n1 [Compound D6S8N6],9.4%
20,CCCCCCCCCNc1nc(NCCN(CC)CC)nc(SCCCCCCC)n1 [Compound D7S7N9],10.5%
21,CCCCCCCCCCCNc1nc(NCCN(C)C)nc(SCCCCCCCCCC)n1 [Compound D1S10N11],6.2%
22,CCCCCCCCCNc1nc(NCCN2CCN(C)CC2)nc(SCCCCCCC)n1 [Compound D5S7N9],3.1%
23,CCCCCCCCCCCCCCSc1nc(NCCN2CCN(C)CC2)nc(SCCCCCC)n1 [Compound D5S6S14],45.3%

row,Structure (SMILES),Absolute mRNA transfection efficiency in HEK293 cells
1,CCCCCCCCCCCCNc1nc(NCCN2CCOCC2)nc(SCCCCCCC)n1 [Compound D2S7N12],3.0%
2,CCCCCCCCCCCCNc1nc(NCCN(C)C)nc(SCCCCCCC)n1 [Compound D1S7N12],5.4%
3,CCCCCCCCCCCCCCCCCCNc1nc(NCCCN2CCOCC2)nc(SCCCCCCCCC)n1 [Compound D8S9N18],1.9%
4,CCCCCCCCCCCCCCCCSc1nc(NCC2CCN(C)CC2)nc(SCCCCCC)n1 [Compound D10S6S16],85.5%
5,CCCCCCCCCCCCCCCCCCNc1nc(NCCCN(C)C)nc(SCCCCCCCCCCCCCC)n1 [Compound D6S14N18],0.7%
6,CCCCCCCCCCCCCCSc1nc(NCCCCCCCCCCCCC)nc(NCCN(C)C)n1 [Compound D1S14N13],6.0%
7,CCCCCCCCCNc1nc(NCCN2CCCC2)nc(SCCCCCCCCC)n1 [Compound D3S9N9],15.4%
8,CCCCCCCCCCCCCCCCCCSc1nc(NCC2CCN(C)CC2)nc(SCCCCCCC)n1 [Compound D10S7S18],90.5%
9,CCCCCCCCCCCCCCCCSc1nc(NCCCCCCCCCCC)nc(NCCN(CC)CC)n1 [Compound D7S16N11],8.3%
10,CCCCCCCCCCCSc1nc(NCCN2CCCC2)nc(SCCCCCC)n1 [Compound D3S6S11],0.7%
11,CCCCCCCCCCCCSc1nc(NCCCN2CCOCC2)nc(SCCCCCCC)n1 [Compound D8S7S12],20.7%
12,CCCCCCCCCSc1nc(NCCCN2CCOCC2)nc(SCCCCCCC)n1 [Compound D8S7S9],18.6%
13,CCCCCCCCCCCCCCCCSc1nc(NCCCCCC)nc(NCCCN(C)C)n1 [Compound D6S16N6],96.4%
14,CCCCCCCCCCCCCCCCNc1nc(NCCCN2CCOCC2)nc(SCCCCCCCCCCCCCC)n1 [Compound D8S14N16],0.4%
15,CCCCCCCCCCCCCCCNc1nc(NCCN2CCOCC2)nc(SCCCCCCCCCCCCCC)n1 [Compound D2S14N15],0.0%
16,CCCCCCCCCCCCN(CCCCCCCCCCCC)c1nc(NCCN(CC)CC)nc(SCCCCCCCCC)n1 [D7S9^2N12],0.2%
17,CCCCCCCCCCCCSc1nc(NCCCCCCCC)nc(NCC2CCN(C)CC2)n1 [Compound D10S12N8],12.9%
18,CCCCCCCCCNc1nc(NCCCN2CCOCC2)nc(SCCCCCCCCC)n1 [Compound D8S9N9],14.0%
19,CCCCCCCCCCCCCNc1nc(NCCN(CC)CC)nc(SCCCCCCCCCC)n1 [Compound D7S10N13],13.7%
20,CCCCCCCCCCSc1nc(NCCCCCCCCC)nc(NCCN2CCN(C)CC2)n1 [Compound D5S10N9],8.5%
21,CCCCCCCCCCCCNc1nc(NCCN(C)C)nc(SCCCCCCCC)n1 [Compound D1S8N12],17.9%
22,CCCCCCCCCCCCCCCCCCSc1nc(NCCCCCCCCCCCCC)nc(NCCN(CC)CC)n1 [Compound D7S18N13],1.5%
